Reference: ChEMBL document CHEMBL5608174, “Synthesis and biological evaluation of 4-phenyl-5-quinolinyl substituted isoxazole analogues as potent cytotoxic and tubulin polymerization inhibitors against ESCC” (Eur J Med Chem, 2024)
Activity calls are given as the source filed them. The rule behind the calls is not given here.

Legend:
[1] = tested on: KYSE-270; test: Antiproliferative activity against human KYSE-270 cells assessed as inhibition of cell growth incubated for 48 hrs by MTT assay; assay type: functional, cell-based; conditions: KYSE-270, 48 h
[2] = tested on: Esophageal squamous cell carcinoma cell; test: Antiproliferative activity against human Esophageal squamous cell carcinoma cells assessed as reduction in EdU-positive cells at 5 to 20 nmol/L incubated for 48 hrs by EdU staining based inverted fluorescence microscopic analysis; assay type: functional; conditions: dose 5-20 nmol/L
[3] = tested on: KYSE-30; test: Induction of morphological changes in human KYSE-30 cells assessed as induction of fragmentation in nuclei at 5 to 20 nmol/L incubated for 48 hrs by DAPI staining based fluorescence microscopic analysis; assay type: functional, cell-based; conditions: dose 5-20 nmol/L
[4] = Toxicity in female BALB/c-nu nude mouse xenografted with human KYSE-30 cells assessed as effect on serum AST level at 6 to 12 mg/kg, ip administered for 15 days by biochemical analysis; assay type: organism-based; conditions: in vivo, 360 h, dose 6-12 mg/kg, time 15 day

## COc1ccc(-c2cnoc2-c2cc(C)nc3ccccc23)cc1
[1]
  IC50: 41.8 nM
[2]
  Activity: Active
[3]
  Activity: Active
[4]
  Activity: Non-Toxic
